Common to all, as to assay: Antibacterial activities, MIC
Holding throughout (type): cell-based

One test concerns Morg. morganii EP-14. The conditions noted are these: Morganella morganii, EP14, Morg. morganii EP-14; read-out: MIC.
The subject of the next test is Kleb Pneumoniae EK-6. As to conditions: read-out: MIC.
The test system of another test is Staph. aureus 209-P. The conditions noted are these: Staphylococcus aureus, read-out: MIC.
A further test deals with Ser. marcescens ES-75. The conditions noted are these: Serratia marcescens, ES75, read-out: MIC.
A further test concerns Escher. coli NIHJ. As to conditions: Escherichia coli, read-out: MIC.
Another test has as its system Pseud. aeruginosa EP-01. The conditions noted are these: Pseudomonas aeruginosa, EP01, Pseud. aeruginosa EP-01; read-out: MIC.

MIC data for 13 compounds are collected here from US5373000A, “7Beta-(thiadiazolyl)-2-iminoacetamido-3cephem compounds” (Eisai Co., Ltd., priority 1985, dated 1994).

In brackets after ≈: the same amount, converted by molar mass. A value given as a limit tells only on which side of the number the result lay.

In general, MIC refers to the smallest concentration in the dilution series that meets the test's criterion for growth inhibition.

Regarding `CO/N=C(\C(=O)N[C@@H]1C(=O)N2C(C(=O)[O-])=C(/C=C/C[N+](C)(C)Cc3csc(N)n3)CS[C@H]12)c1nsc(N)n1` [Example 25], the minimum inhibitory concentration (MIC) with Morg. morganii EP-14 is 0.05 µg/mL (≈ 0.0863 µM); in the test on Kleb Pneumoniae EK-6 it was 0.03 µg/mL (≈ 0.0518 µM); with Staph. aureus 209-P, 0.2 µg/mL (≈ 0.345 µM); in the test on Ser. marcescens ES-75, 0.03 µg/mL (≈ 0.0518 µM); with Escher. coli NIHJ, at most 0.025 µg/mL; in the test on Pseud. aeruginosa EP-01 it was 3.13 µg/mL (≈ 5.4 µM).

For `CO/N=C(\C(=O)N[C@@H]1C(=O)N2C(C(=O)[O-])=C(/C=C/C[N+](C)(C)Cc3ccoc3)CS[C@H]12)c1nsc(N)n1` [Example 26, 7β-[2-(5-Amino-1,2,4-thiadiazol-3-yl)-(Z)-2-methoxyiminoacetamido]-3-[(E)-3-[(furan-3-yl)-methyldimethylammonio]-1-propen-1-yl]-3-cephem-4-carboxylate], the MIC in the test on Morg. morganii EP-14 is at most 0.025 µg/mL; with Kleb Pneumoniae EK-6, at most 0.025 µg/mL; with Staph. aureus 209-P it was 0.2 µg/mL (≈ 0.365 µM); with Ser. marcescens ES-75, 0.05 µg/mL (≈ 0.0913 µM); in the test on Escher. coli NIHJ, at most 0.025 µg/mL; in the test on Pseud. aeruginosa EP-01, 3.13 µg/mL (≈ 5.72 µM).

As to `CO/N=C(\C(=O)N[C@@H]1C(=O)N2C(C(=O)[O-])=C(/C=C/C[N+]3(C)CCN(S(N)(=O)=O)CC3)CS[C@H]12)c1nsc(N)n1` [Example 27, 7β-[2-(5-Amino-1,2,4-thiadiazol-3-yl)-(Z)-2-methoxyiminoacetamido]-3-[(E)-3-(1-methyl-4-sulfamoyl-1-piperazinio)-1-propen-1-yl]-3-cephem-4-carboxylate], the MIC is 0.05 µg/mL (≈ 0.0831 µM) with Morg. morganii EP-14; at most 0.025 µg/mL in the test on Kleb Pneumoniae EK-6; 0.2 µg/mL (≈ 0.332 µM) in the test on Staph. aureus 209-P; 0.1 µg/mL (≈ 0.166 µM) in the test with Ser. marcescens ES-75; at most 0.025 µg/mL in the test on Escher. coli NIHJ; 0.8 µg/mL (≈ 1.33 µM) in the test on Pseud. aeruginosa EP-01.

As for `CO/N=C(\C(=O)N[C@@H]1C(=O)N2C(C(=O)[O-])=C(/C=C/C[N+]3(C)CCN(C=N)CC3)CS[C@H]12)c1nsc(N)n1` [Example 28, 7β-[2-(5-Amino-1,2,4-thiadiazol-3-yl)-(Z)-2-methoxyiminoacetamido]-3-[(E)-3-(1-methyl-4-formimidoyl-1-piperazinio)-1-propen-1-yl]-3-cephem-4-carboxylate], the MIC in the test with Morg. morganii EP-14 was determined as 0.1 µg/mL (≈ 0.182 µM); in the test on Kleb Pneumoniae EK-6, 0.1 µg/mL (≈ 0.182 µM); in the test with Staph. aureus 209-P, 0.4 µg/mL (≈ 0.728 µM); in the test with Ser. marcescens ES-75, 0.2 µg/mL (≈ 0.364 µM); with Escher. coli NIHJ it was 0.05 µg/mL (≈ 0.091 µM); in the test with Pseud. aeruginosa EP-01, 1.56 µg/mL (≈ 2.84 µM).

Take `CO/N=C(\C(=O)N[C@@H]1C(=O)N2C(C(=O)[O-])=C(/C=C/C[N+]3(C)CCN(C(N)=O)CC3)CS[C@H]12)c1nsc(N)n1` [Example 29, 7β-[2-(5-Amino-1,2,4-thiadiazol-3-yl)-(Z)-2-methoxyiminoacetamido]-3-[(E)-3-(1-methyl-4-carbamoyl-1-piperazinio)-1-propen-1-yl]-3-cephem-4-carboxylate]: the MIC in the test with Morg. morganii EP-14 came to 0.05 µg/mL (≈ 0.0884 µM); in the test with Kleb Pneumoniae EK-6, 0.05 µg/mL (≈ 0.0884 µM); with Staph. aureus 209-P it was 0.4 µg/mL (≈ 0.707 µM); with Ser. marcescens ES-75, 0.1 µg/mL (≈ 0.177 µM); with Escher. coli NIHJ, 0.05 µg/mL (≈ 0.0884 µM); with Pseud. aeruginosa EP-01 it was 1.56 µg/mL (≈ 2.76 µM).

Turning to `CO/N=C(\C(=O)N[C@@H]1C(=O)N2C(C(=O)[O-])=C(/C=C/C[N+]3(C)CCS(=O)(=O)CC3)CS[C@H]12)c1nsc(N)n1` [Example 31, 7β-[2-(5-Amino-1,2,4-thiadiazol-3-yl)-(Z)-2-methoxyiminoacetamido]-3-[(E)-3-(1,1-dioxo-4-methyl-4-thiomorpholinio)-1-propen-1-yl]-3-cephem-4-carboxylate], the MIC was 0.05 µg/mL (≈ 0.0875 µM) in the test on Morg. morganii EP-14; at most 0.025 µg/mL in the test on Kleb Pneumoniae EK-6; 0.4 µg/mL (≈ 0.7 µM) in the test on Staph. aureus 209-P; 0.1 µg/mL (≈ 0.175 µM) in the test with Ser. marcescens ES-75; 0.05 µg/mL (≈ 0.0875 µM) with Escher. coli NIHJ; 0.8 µg/mL (≈ 1.4 µM) with Pseud. aeruginosa EP-01.

Turning to `CO/N=C(\C(=O)N[C@@H]1C(=O)N2C(C(=O)[O-])=C(/C=C/C[N+]34CCN(CC3)CC4)CS[C@H]12)c1nsc(N)n1` [Example 32, 7β-[2-(5-Amino-1,2,4-thiadiazol-3-yl)-(Z)-2-methoxyiminoacetamido]-3-[(E)-3-(1,4-diazabicyclo[2,2,2]octan-1-io)-1-propen-1-yl]-3-cephem-4-carboxylate], the MIC was 0.05 µg/mL (≈ 0.0935 µM) with Morg. morganii EP-14; at most 0.025 µg/mL with Kleb Pneumoniae EK-6; 0.2 µg/mL (≈ 0.374 µM) in the test on Staph. aureus 209-P; 0.1 µg/mL (≈ 0.187 µM) in the test on Ser. marcescens ES-75; at most 0.025 µg/mL in the test on Escher. coli NIHJ; 0.8 µg/mL (≈ 1.5 µM) with Pseud. aeruginosa EP-01.

In the case of `CO/N=C(\C(=O)N[C@@H]1C(=O)N2C(C(=O)[O-])=C(/C=C/C[N+]3(C)CC=C(C(N)=O)CC3)CS[C@H]12)c1nsc(N)n1` (stereo partly drawn) [Example 34, 7β-[2-(5-Amino-1,2,4-thiadiazol-3-yl)-(Z)-2-methoxyiminoacetamido]-3-[(E)-3-(1-methyl-4-carbamoyl-1,2,3,6-tetrahydropyridinio)-1-propen-1-yl]-3-cephem-4-carboxylate], the MIC was 0.05 µg/mL (≈ 0.0889 µM) in the test with Morg. morganii EP-14; 0.1 µg/mL (≈ 0.178 µM) in the test with Kleb Pneumoniae EK-6; 0.2 µg/mL (≈ 0.355 µM) with Staph. aureus 209-P; 0.1 µg/mL (≈ 0.178 µM) with Ser. marcescens ES-75; at most 0.025 µg/mL in the test on Escher. coli NIHJ; 0.8 µg/mL (≈ 1.42 µM) in the test with Pseud. aeruginosa EP-01.

As to `CO/N=C(\C(=O)N[C@@H]1C(=O)N2C(C(=O)[O-])=C(/C=C/C[N+](C)(C)CCC(N)=O)CS[C@H]12)c1nsc(N)n1` [Example 35, 7β-[2-(5-Amino-1,2,4-thiadiazol-3-yl)-(Z)-2-methoxyiminoacetamido]-3-[(E)-3-[N,N-dimethyl-N-(2-carbamoylethyl)ammonio]-1-propen-1-yl]-3-cephem-4-carboxylate], the MIC is 0.05 µg/mL (≈ 0.0928 µM) in the test on Morg. morganii EP-14; 0.1 µg/mL (≈ 0.186 µM) with Kleb Pneumoniae EK-6; 0.2 µg/mL (≈ 0.371 µM) in the test on Staph. aureus 209-P; 0.05 µg/mL (≈ 0.0928 µM) in the test with Ser. marcescens ES-75; at most 0.025 µg/mL in the test on Escher. coli NIHJ; 0.8 µg/mL (≈ 1.49 µM) in the test on Pseud. aeruginosa EP-01.

On to `CO/N=C(\C(=O)N[C@@H]1C(=O)N2C(C(=O)[O-])=C(/C=C/C[N+]34CCCN3CCC4)CS[C@H]12)c1nsc(N)n1` [Example 38, 7β-[2-(5-Amino-1,2,4-thiadiazol-3-yl)-(Z)-2-methoxyiminoacetamido]-3-[(E)-3-(1,5-diazabicyclo[3,3,0]octan-1-io)-1-propen-1-yl]-3-cephem-4-carboxylate], for which the MIC was 0.05 µg/mL (≈ 0.0935 µM) in the test with Morg. morganii EP-14; at most 0.025 µg/mL in the test on Kleb Pneumoniae EK-6; 0.2 µg/mL (≈ 0.374 µM) with Staph. aureus 209-P; 0.1 µg/mL (≈ 0.187 µM) with Ser. marcescens ES-75; at most 0.025 µg/mL in the test on Escher. coli NIHJ; 1.56 µg/mL (≈ 2.92 µM) in the test on Pseud. aeruginosa EP-01.

Regarding `CO/N=C(\C(=O)N[C@@H]1C(=O)N2C(C(=O)[O-])=C(/C=C/C[N+](C)(C)[C@H](C)C(N)=O)CS[C@H]12)c1nsc(N)n1` [Example 42], the MIC in the test on Morg. morganii EP-14 is 0.05 µg/mL (≈ 0.0928 µM); with Kleb Pneumoniae EK-6, at most 0.025 µg/mL; with Staph. aureus 209-P it was 0.2 µg/mL (≈ 0.371 µM); with Ser. marcescens ES-75, 0.1 µg/mL (≈ 0.186 µM); in the test on Escher. coli NIHJ it was 0.05 µg/mL (≈ 0.0928 µM); in the test on Pseud. aeruginosa EP-01, 0.8 µg/mL (≈ 1.49 µM).

Take `CO/N=C(\C(=O)N[C@@H]1C(=O)N2C(C(=O)[O-])=C(/C=C/C[N+]3(C)CC(O)CC3CO)CS[C@H]12)c1nsc(N)n1` (stereo partly drawn) [Example 43]: the MIC with Morg. morganii EP-14 was at most 0.025 µg/mL; with Kleb Pneumoniae EK-6, at most 0.025 µg/mL; in the test on Staph. aureus 209-P, 0.4 µg/mL (≈ 0.723 µM); in the test on Ser. marcescens ES-75, 0.05 µg/mL (≈ 0.0903 µM); with Escher. coli NIHJ, 0.05 µg/mL (≈ 0.0903 µM); with Pseud. aeruginosa EP-01, 1.56 µg/mL (≈ 2.82 µM).

Consider `CO/N=C(\C(=O)N[C@@H]1C(=O)N2C(C(=O)[O-])=C(/C=C/C[N+]3(CCO)CCC(C(N)=O)CC3)CS[C@H]12)c1nsc(N)n1` (stereo partly drawn) [Example 44-1], for which the MIC was 0.05 µg/mL (≈ 0.0841 µM) with Morg. morganii EP-14; at most 0.025 µg/mL in the test on Kleb Pneumoniae EK-6; 0.4 µg/mL (≈ 0.673 µM) in the test on Staph. aureus 209-P; 0.05 µg/mL (≈ 0.0841 µM) in the test with Ser. marcescens ES-75; 0.05 µg/mL (≈ 0.0841 µM) in the test on Escher. coli NIHJ; 0.8 µg/mL (≈ 1.35 µM) in the test with Pseud. aeruginosa EP-01.
